According to US8987449B2, “Medicine for treating ischemic brain injury and its sequelae, and preparation method thereof” (Haimin Lei, priority 2011, dated 2015):

Legend:
[1] = test system: chicken chorioallantoic membrane (CAM); assay: Effect of LQC-T on CAM angiogenesis (CAM method, vessel count); type: in vivo; conditions: 20 μg/chicken embryo; for small vessel angiogenesis of CAM model, Medicine group (X ± S): 72 h incubation, number of small vessels, blank group 8.67 ± 1.03
Experimental: Embryonated chicken eggs of Lohmann of German, egg weight 50-60 g (embryo experiment center of Chinese Agriculture University)
LQC-T (1-6) (prepared by the methods of examples 2-7), wherein the purity was ≧98%, determined by high performance liquid chromatography (HPLC), meeting the requirements of the experiment. The powder was carefully sealed and preserved at 4° C.
Aseptic gelatin sponge, which was made into a wafer having a diameter of 5 mm by a hole-puncher in advance, was used as sample carrier. The prepared LQC-T series compounds were added according to 20 μg/chicken embryo in an aseptic environment. The 0.9% physiological saline was used in a blank group. The samples were air-dried in an aseptic environment.
A hatching egg after disinfection was put into a 37° C. incubation box with air sac upward until the seventh day of incubation. The egg embryo was disinfected using alcohol at a super clean bench, and then a small hole was drilled at the top of the egg embryo using a dental drill, and the nearby egg shell and shell membrane were removed carefully to form the opening with the size of about 1.2 cm×1.2 cm. After spotting the location for applying the sample, the air sac was broken with injection needle at the interface between air sac and the yolk and then 1-2 drops of aseptic physiological saline was injected so that the air sac membrane was separated from CAM membrane. Then the upper air sac membrane was slightly removed with a nipper to expose the lower CAM membrane.
The medicine-containing carrier was softly put by a nipper at the locations of CAM and yolk cyst membrane with fewer vessels, the opening was then sealed with aseptic transparent tape and incubation was continued for another 72 h.
After the incubation, the transparent tape blocking the chicken embryo air sac was removed with a nipper. The liquid of equal-volumetrically mixed methanol/acetone 1-2 ml was added and fixed at room temperature for 10 min. The CAM membrane was carefully removed and put it onto a slide. Then it was observed and a photograph was taken. The effect of the compounds on angiogenesis was evaluated by the count analytic method using the numbers of great vessels, medium vessels and small vessels arranged radially around by the carrier.
All the data were statistically analyzed using SPSS11.0 software pack. The difference between the administration group and the blank group was given through one-way variance analysis. P<0.05 had statistical significance.

[2] = test system: rat primary cortical neurons; assay: Proliferation of primary neuronal cells by MTT and morphology observation; type: cell-based; conditions: 60 μM; normal neurons; control 0.7567 ± 0.1109
Experimental: SD pregnant rats: pregnant for 16-18 d, certificate number: SCXK (Jing) 2006-0009, provided by BeiJing Vital River Laboratories.
LQC-T4 (prepared by the method of example 5), the purity was ≧98%, determined by high performance liquid chromatography (HPLC), which met the requirement of the experiment. The powder was carefully sealed and preserved at 4° C. The prepared LQC-T4 was dissolved using dimethyl sulfoxide and made into […] storing liquid for use.
Referring to the document [HongQingtao, TangYipeng, Neurons of cerebral cortex of newborn rats in in vitro primary culture, Chinese Journal of Neuroanatomy, 1994, 10(3):259-262], the pregnant 16-18 d SD rat was executed by dislocation. The fetal rat was taken out in an aseptic environment, the meninges and blood steak were stripped, the cortex was separated and cut into 1 mm^3 tissue block (all carried out on ice). The tissue block was digested at 37[…] with 0.1% pancreatic enzyme-0.02% EDTA for 20 min. Digesting was stopped using DMEM containing fetal calf serum and the number of the cells was adjusted to 5×10^5 cells ml^−1. The resultant cells were inoculated into a 96 well plate treated by 0.001% polylysine and the plate was put in a 37° C. 5% CO2 incubation box to be cultured. The cultivation liquid was changed (totally) after 48 h and add adenine arabinoside was added (final concentration is 5 μM) to inhibit the excessive proliferation of non-neurons. The cultivation liquid was changed after 48 h with fresh cultivation liquid and culture was continued. And the cultivation liquid was changed every 3 days afterward.
The cultivation liquid was sucked away on the eighth day of neuron culture. DMEM culture-medium containing 0.15% DMSO was added to the blank group, while 60 μM, 30 μM, 15 μM LQC-T4, 60 μM tetramethylpyrazine and 60 μM vanillic acid were respectively added to the administration group. Ten parallel wells were set as a group. And they were put into a 37° C., 5% CO2 incubation box to continue culturing for 24 h.
5 mg/ml MTT 20 μl was added to each well at the time of 4 h before the experiment ended and the cultivation liquid was sucked away. DMSO 200 μl was added to each well. When the purple particles were completely dissolved, the enzyme-linked immune assay was used to measure the optical density at 540 nm.
(§1) The SAS 8.2 statistical software was used to carry out the one-way ANOVA variance analysis and the difference among the groups were compared by t-test.

ICR mice = assay: Buccal respiration duration of mice after head cutting (4° C. icy water swimming model); type: in vivo, mouse; conditions: 80 mg/kg intragastrically once a day for 10 days, control 32.45 ± 5.49
Experimental: ICR mice, half female and half male, weighing 19-21 g, certificate No.: SCXK (Jing) 2006-0009, provided by BeiJing Vital River Laboratories.
LQC-T4, tetramethylpyrazine (TMP), vanillic acid, Nimodipine (ShanDong XinHua Pharmaceutical CO., Ltd, batch No.: 0908164)
160 male ICR mice were divided into 8 groups randomly by weight, each of which contained 20 mice, wherein 0.5% CMC-NA (0.2 ml·10 g^−1) was administrated intragastrically to the blank control group; 6.7 mg·kg^−1 Nimodipine (0.2 ml·10 g^−1) was administrated intragastrically to the positive control group; 100 mg·kg^−1 TMP (0.2 ml·10 g^−1) was administrated intragastrically to the TMP group, three different dosage of 200 mg·kg^−1, 100 mg·kg^−1, 50 mg·kg^−1 were administrated intragastrically to the LQC-T4 (0.2 ml·10 g^−1) group relatively, and 125 mg·kg^−1 TMP+80 mg·kg^−1 vanillitc acid (0.2 ml·10 g^−1) was administrated intragastrically respectively. The medicines were continuously administrated once a day for 10 days.
The literature was referred to: [LiuZhenquan, SunHui, Xuqiuping, etc., Experimental Study on the Brain-Protective Effect of the Effective Fraction of Naoxin Formula in the Mouse Model of with Load-Bearing Swimming in Cold Water, Journal of Beijing University of Traditional Chinese Medicine [J], 2004, 27(4): 54-56] and the method recorded therein was improved. The head was rapidly cut with a scissor at post mortem when the mouse swam in 4° C. icy water for 3 min after the final administration. After head being cut, the buccal respiration duration of mouse was recorded.
as §1

| Compound | small vessel angiogenesis of CAM model, Medicine group (X ± S) [1] | further results |
| --- | --- | --- |
| Cc1nc(C)c(COC(=O)c2ccc(OCc3nc(C)c(C)nc3C)c(OCc3nc(C)c(C)nc3C)c2)nc1C [LQC-T2, (3,5,6-trimethylpyrazine-2-yl)methyl-3,4-bis((3,5,6-trimethylpyrazine-2-yl)methoxy) benzoate] | 14.17 ± 1.47 | effect on growth of new (small) vessels compared with the blank group ([1]; result in words): significant promoting effect |
| COc1cc(C(=O)OCc2nc(C)c(C)nc2C)ccc1O [LQC-T3, (3,5,6-trimethylpyrazine-2-yl)methyl-3-methoxy-4-hydroxybenzoate] | 10.4 ± 2.16 | – |
| Cc1nc(C)c(COc2ccc(C=O)cc2OCc2nc(C)c(C)nc2C)nc1C [LQC-T5, 3,4-bis((3,5,6-trimethylpyrazine-2-yl)methoxy)benzaldehyde] | 14.17 ± 5.19 | – |
| Cc1nc(C)c(COC(=O)/C=C/c2ccc(OCc3nc(C)c(C)nc3C)c(OCc3nc(C)c(C)nc3C)c2)nc1C [LQC-T6] | 8.83 ± 3.71 | – |
| COc1cc(C(=O)O)ccc1O [Vanillic acid, vanillic acid, reference compound] | – | MTT(A540), 24 h after the administration [2]: 0.8820 ± 0.1469; respiration duration (ICR mice): 35.73 ± 5.66 s |
| (3,5,6-trimethylpyrazin-2-yl)methyl 4-hydroxy-3-methoxybenzoate [LQC-T1] | 12.7 ± 2.73 | – |
